This data set can be described thus: RP, Merck Supelco Ascentis Express C18, 150 × 2.1 mm, 2.7 µm, 55 °C, 0.26 mL/min, estimated dead time 1.3 min; A: 60% water + 40% acetonitrile + 0.1% formic acid + 10 mM ammonium formate; B: 10% acetonitrile + 90% isopropanol + 0.1% formic acid + 10 mM ammonium formate; gradient (min/%B) 0/32 1.5/32 4/45 5/52 8/58 11/66 14/70 18/75 21/97 25/97 25.1/32 30/32. The conditions noted are these: stereoisomer not certain.
Consider `CC(CCC(=O)NCCS(=O)(=O)O)C1CCC2C3CCC4CC(O)CCC4(C)C3CC(O)C12C` (centres undefined) [T-DCA], for which the LC retention time was 1.6 min.

Regarding `CCC=CCC=CCC=CCC=CCC=CCC=CCCC(=O)O` [DocosahexaenoicAcid], the LC retention time is 8.4 min. In the case of `CCCCCCC=CCCCCCCCC(=O)O` [palmitoleic_acid] it was 8.4 min; in that of `CC(=O)C1CCC2C3CCC4=CC(=O)CCC4(C)C3CCC12C` (centres undefined) [Progesterone], 2.7 min. Regarding `NC(COP(=O)(O)O)C(=O)O` (centres undefined) [PS], the LC retention time was 14.9 min.

Take `CCC(CCC(C)C1CCC2C3CC=C4CC(OC5OC(CO)C(O)C(O)C5O)CCC4(C)C3CCC12C)C(C)C` (centres undefined) [betaSitosterolglucoside]: the LC retention time is 12.6 min. Under `CCCCCCCCCCCCCCCC(=O)OCC(COC(=O)CCCCCCCCCCCCCCC)OC(=O)CCCCCCCCCCCCCCC` [glyceryltripalmitate] stands 24.2 min; under `CCCCCCCCCCCCCC=CC(O)C(CO)NC(=O)CCCCCCCCCCCCCCCCC` (centres undefined) [CER_893], 19.4 min. Turning to `CCCCCCC=CCCCCCCCC(=O)OCC(O)CO` (racemic) [1monopalmitoleoyl-rac-GL], the LC retention time is 7 min. `CCCCCC=CCC=CCCCCCCCC(=O)OCC(COP(=O)(O)OCC[N+](C)(C)C)OC(=O)CCCCCCCC=CCC=CCCCCC` (centres undefined) [1,2dilinoleoyl_PC]: the LC retention time was 14.7 min. As for `CC(CCC(=O)NCC(=O)O)C1CCC2C3CCC4CC(O)CCC4(C)C3CCC12C` (centres undefined) [G-LCA], the LC retention time is 2.9 min. Under `CC(C)C(C)C=CC(C)C1CCC2C3=CC=C4CC(O)CCC4(C)C3CCC21C` (centres undefined) [ergosterol] stands 14.2 min. In the case of `CCCCCCCCC=CCCCCCCCCCCCC(=O)O` [erucic acid] it was 14 min; in that of `CCCCCCCCC=CCCCCCCCC(=O)OCC(COP(=O)(O)OCCN)OC(=O)CCCCCCCC=CCCCCCCCC` (centres undefined) [1,2dioleoyl_PE], 17.4 min. Under `CC(CCC(=O)NCC(=O)O)C1CCC2C3C(O)CC4CC(O)CCC4(C)C3CC(O)C12C` (centres undefined) [G-CA] stands 1.6 min; under `CC(C)=CCCC(C)C1CCC2(C)C3=C(CCC12C)C1(C)CCC(O)C(C)(C)C1CC3` (centres undefined) [lanosterol], 15 min. For the compound `CC(C)C(C)C=CC(C)C1CCC2C3CC=C4CC(O)CCC4(C)C3CCC12C` (centres undefined) [brassicasterol], the LC retention time is 15.1 min. For `CCCCCCCCC=CCCCCCCCC(=O)OCC(COP(=O)([O-])OCC[N+](C)(C)C)OC(=O)CCCCCCCC=CCCCCCCCC` (centres undefined) [1,2dioleoyl_PC], the LC retention time was 17 min. With `CCCCCCCC/C=C\CCCCCCCCCC(=O)O` [cis-11-eicosenoic acid], the LC retention time is 12.2 min. In the case of `CC(C)=CCCC(C)C1CCC2C3CC=C4CC(O)CCC4(C)C3CCC12C` (centres undefined) [desmosterol] it was 13.8 min. Under `CCCCCC=CCC=CCCCCCCCC(=O)OCC(COC(=O)CCCCCCCC=CCC=CCCCCC)OC(=O)CCCCCCCC=CCC=CCCCCC` (centres undefined) [Glyceryltrilinoleate] stands 23.6 min; under `CCCCCCCCCCCCCC=CC(O)C(N)CO` [D-sphingosine], 4.3 min. For `CCCCCCCCCCCCCCCCCC(=O)OCC(COC(=O)CCCCCCCCCCCCCCCCC)OC(=O)CCCCCCCCCCCCCCCCC` [glyceryltristearate], the LC retention time was 24.9 min.

Regarding `CCCCCCCCC=CCCCCCCCC(=O)OCC(O)CO` (stereo not drawn) [1oleoyl_rac_GL], the LC retention time is 8.8 min.

Consider `CC(C)CCCC(C)C1CCC2C3CC4OC45CC(O)CCC5(C)C3CCC12C` (centres undefined) [Chol_Epoxide], for which the LC retention time was 12.8 min. Under `CC1CCC2(CO)CCC3(C)C(=CCC4C5(C)CCC(O)C(C)(C)C5CCC43C)C2C1C` (centres undefined) [uvaol] stands 7.6 min. In the case of `CCCCCCCCCCCCCC(=O)O` [MirysticAcid] it was 8 min; in that of `CCCCCCCCCCCCCCCC(=O)O` [palmitic_acid], 9.9 min. Turning to `CCCCCCC=CCCCCCCCCCC(=O)O` [cis-vaccenic_acid], the LC retention time is 10.3 min. Under `CCCCCCCCCCCCCCCC(=O)OC(CC(=O)[O-])C[N+](C)(C)C` (centres undefined) [C16-CAR] stands 5.4 min; under `CCC(C=CC(C)C1CCC2C3CC=C4CC(O)CCC4(C)C3CCC12C)C(C)C` (centres undefined) [stigmasterol], 16 min. With `CC(CCC(=O)O)C1CCC2C3CCC4CC(O)CCC4(C)C3CC(O)C12C` (centres undefined) [DCA], the LC retention time is 3.5 min. Under `CCCCCCC=CCCCCCCCC(=O)OCC(COC(=O)CCCCCCCC=CCCCCCC)OC(=O)CCCCCCCC=CCCCCCC` (centres undefined) [glyceryltripalmitoleate] stands 24.2 min; under `CCCCCCCCC=CCCCCCCCC(=O)O` [oleic_acid], 10.3 min. In the case of `CCCCCCCCC=CCCCCCCCC(=O)OC(CC(=O)[O-])C[N+](C)(C)C` (centres undefined) [Oleoyl-CAR] it was 5.8 min; in that of `CCCCC=CCCCCCCCC(=O)O` [MiristoleicAcid], 6.6 min; in that of `CC(CCC(=O)O)C1CCC2C3C(O)C(O)C4CC(O)CCC4(C)C3CCC12C` (centres undefined) [MCA], 1.9 min. As to `CCC(CCC(C)C1CCC2C3CC=C4CC(O)CCC4(C)C3CCC12C)C(C)C` (centres undefined) [BSitosterol], the LC retention time is 16.6 min. `C=C(C)C1CCC2(C)CCC3(C)C(CCC4C5(C)CCC(O)C(C)(C)C5CCC43C)C12` (centres undefined) [lupeol]: the LC retention time was 15.2 min.

For the compound `CCCCCCCCCCCCCCCCCCCC(=O)O` [arachidic acid], the LC retention time is 13.9 min.

`CCCCCCCCC=CCCCCCCCC(=O)OCC(COP(=O)(O)OCC(O)CO)OC(=O)CCCCCCCC=CCCCCCCCC` (centres undefined) [1,2dioleoyl_GLP_Na]: the LC retention time was 15.7 min. In the case of `CCCCC/C=C\C/C=C\CCCCCCCC(=O)O` [linoleic acid], the LC retention time was 8.9 min. Under `CCCCCCCCC=CCCCCCCCC(=O)OCC(COC(=O)CCCCCCCC=CCCCCCCCC)OC(=O)CCCCCCCC=CCCCCCCCC` (centres undefined) [glyceryltrioleate] stands 24.2 min; under `CC(CCC(=O)O)C1CCC2C3C(O)CC4CC(O)CCC4(C)C3CC(O)C12C` (centres undefined) [CA], 2.2 min. Under `CC(C)CCCC(C)C1CCC2C3CC=C4CC(O)CCC4(C)C3CCC12C` (centres undefined) [CHOLESTEROL] stands 15.3 min; under `CC(CCC(=O)NCC(=O)O)C1CCC2C3CCC4CC(O)CCC4(C)C3CC(O)C12C` (centres undefined) [G-DCA], 2.1 min; under `CC(CCC(=O)O)C1CCC2C3CC(O)C4CC(O)CCC4(C)C3CCC12C` (centres undefined) [HDCA], 2.1 min. As to `CCCCCCCCCCCCCCCCCC(=O)O` [StearicAcid], the LC retention time was 12 min. Regarding `CC(C)CCCC(C)C1CCC2C3CCC4CC(O)CCC4(C)C3CCC12C` (centres undefined) [Cholestanol], the LC retention time is 11.3 min. With `CC(C)C(C)CCC(C)C1CCC2C3CC=C4CC(O)CCC4(C)C3CCC12C` (centres undefined) [campesterol], the LC retention time was 16 min.

For the compound `CC(CCC(=O)O)C1CCC2C3CCC4CC(O)CCC4(C)C3CCC12C` (centres undefined) [LCA], the LC retention time was 5.6 min. On to `CCCCCC=CCC=CCCCCCCCC(=O)OCC(O)CO` (racemic) [1linoleoyl-rac-GL], for which the LC retention time is 7.6 min. In the case of `CCCCCCCCCCCCCCCC(=O)OCC(O)COP(=O)([O-])OCC[N+](C)(C)C` (centres undefined) [1-palmitoyl-sn-glycero-3PC] it was 5.9 min; in that of `CC(C)CCCC(C)C1CCC2C3CCC4CCCCC4(C)C3CCC12C` (centres undefined) [5alfa-colestane], 9.2 min; in that of `CCCCCCCCCCCCCCCCCCCCCC(=O)O` [BehenicAcid], 15.8 min.

Regarding `CCCCCCCCCCCCCCCCC(=O)O` [margaric acid], the LC retention time was 11 min.

Take `CCCCCCCCCCCCCCCCCCCCCCCC(=O)O` [lignoceric acid]: the LC retention time is 17.8 min.

Consider `CCC=CCC=CCC=CCCCCCCCC(=O)O` [linolenic acid], for which the LC retention time was 7.8 min. On to `NC(CF)(C(=O)O)C(O)CCc1ccccc1` (centres undefined) [T-LCA], for which the LC retention time is 2 min.

The record behind these values is the RepoRT retention time repository (doi:10.1016/j.talanta.2015.03.003).
